Drawing on ChEMBL document CHEMBL6087399, “Extended structure-activity relationship studies of the [1,2,5]oxadiazolo[3,4-b]pyrazine-containing colistin adjuvants” (Bioorg Med Chem Lett, 2025), this text covers MIC for 1 compound.

Where a SMILES comes first, the peptide text is derived from it.

The test system of experiment [1] is Escherichia coli. In words: Antibacterial activity against Escherichia coli AR-0493 harboring mcr-1 gene. It is filed as functional.
Experiment [2] concerns Escherichia coli. In words: Antibacterial activity against Escherichia coli AR-0538 harboring mcr-2 gene. It counts as functional.
For experiment [3], the system named is Salmonella typhimurium. In words: Antibacterial activity against Salmonella typhimurium AR-0539 harboring mcr-3 gene. It is filed as functional, Salmonella enterica subsp. enterica serovar Typhimurium. To be noted: Salmonella enterica.
The test system of experiment [4] is Salmonella typhimurium. In words: Antibacterial activity against Salmonella typhimurium AR-0635 harboring mcr-4 gene. It counts as functional, Salmonella enterica subsp. enterica serovar Typhimurium. Conditions: Salmonella enterica.
The next experiment has as its system Klebsiella pneumoniae. In words: Antibacterial activity against Klebsiella pneumoniae AR-0497 harboring mcr-1 gene. It is filed as functional.
A further experiment has as its system Acinetobacter baumannii. The experiment can be described thus: Antibacterial activity against Acinetobacter baumannii AR-0310. It is filed as functional.
The subject of another experiment is Pseudomonas aeruginosa. In words: Antibacterial activity against Pseudomonas aeruginosa AR-0239. It counts as functional.

By MIC is commonly meant the smallest concentration in the dilution series that meets the test's criterion for growth inhibition. Lower therefore signals inhibition by little substance. As for `[H][C@@]1([C@@H](C)O)NC(=O)[C@H](CCN)NC(=O)[C@H](CCN)NC(=O)[C@H](CC(C)C)NC(=O)[C@@H](CC(C)C)NC(=O)[C@H](CCN)NC(=O)[C@@H](NC(=O)[C@H](CCN)NC[C@H](NC(=O)[C@H](CCN)NC(=O)CCCCC(C)C)[C@@H](C)O)CCNC1=O.[H][C@@]1([C@@H](C)O)NC(=O)[C@H](CCN)NC(=O)[C@H](CCN)NC(=O)[C@H](CC(C)C)NC(=O)[C@@H](CC(C)C)NC(=O)[C@H](CCN)NC(=O)[C@@H](NC(=O)[C@H](CCN)NC[C@H](NC(=O)[C@H](CCN)NC(=O)CCCCC(C)CC)[C@@H](C)O)CCNC1=O` (stereo partly drawn) (HELM PEPTIDE1{[C[C@@H](O)[C@H](CN[C@@H](CCN)C(=O)[*:2])N[*:3]].[Dab].[Dab].[dL].L.[Dab].[Dab].T}|PEPTIDE2{[CCC(C)CCCCC(=O)[*:2]].[Dab]}$PEPTIDE1,PEPTIDE2,1:R3-2:R2|PEPTIDE1,PEPTIDE1,2:R3-8:R2$$$V2.0), the MIC came out at 8 µg/mL against Escherichia coli [1]; 8 µg/mL in the experiment with Escherichia coli [2]; 8 µg/mL in the experiment with Salmonella typhimurium [3]; 16 µg/mL against Salmonella typhimurium [4]; 16 µg/mL against Klebsiella pneumoniae; 8 µg/mL in the experiment with Acinetobacter baumannii. Further, the MIC in the experiment on Pseudomonas aeruginosa came out at 4 µg/mL.
